Measured values: patent US20240228987A1, “HEXOKINASE-DERIVED PEPTIDES AND THERAPEUTICAL USES THEREOF” (INSERM (INSTITUT NATIONAL DE LA SANTÉ ET DE LA RECHERCHE …, priority 2021, published 2024)
Where a SMILES comes first, the peptide text is derived from it. Where no end group is shown, it is not given here. [ ]: non-standard residue; d: D form. The star is where a group is joined. X1 = CC(C)(C(=O)*)n1cc(-c2cccc(C(F)(F)F)c2)nn1; Nle = CCCC[C@H](N)C(=O)O; Aib = CC(C)(N)C(=O)O

Key:
VDAC = target: T1, VDAC (Homo sapiens, UniProt P21796); test: in-cellulo screening assay: HEK-293 cells transfected with mitoGCaMP2, MJ-induced mitochondrial Ca2+ release through VDAC; format: cell-based; details: for activity / affinity for VDAC on the screening assay (mitoGCaMP2 fluorescence): MJ 6 mM
T1 construct: HEK-293 cells, expressing VDAC and HK; endogenous in cells; host or cells: HEK-293 (ATCC), transfected only with the Ca2+ probes mitoGCaMP2 / GCaMP2
Description: The activity of the designed compounds was assessed on HEK-293 cells transfected with mitoGCaMP2. 40,000 cells per well were seeded in 96-well-microplates coated with Poly-D-Lysine (reference 655946, Greiner Bio-One, France) in 200 μl of DMEM supplemented with 10% FBS and 1% PS. 24 h after seeding, cells were transfected with 50 ng of mitoGCaMP2 plasmid per well using jet-PRIME reagent (Polyplus-transfection S.A, France) according to the manufacturer's recommendations. 48 h after transfection, a first measure of fluorescence was performed using the microplate reader CLARIOstar® (BMG Labtech, France). This measurement represented the basal level of Ca2+ into the mitochondria upon transfection. After a wash with 100 μl of PBS, cells were incubated with a mixture of pre-heated (37° C.) MJ at a final concentration of 6 mM and compounds at the indicated final concentrations in PBS containing 0.1% DMSO and 5% EtOH. After 35 min in a cell incubator, a second measure of fluorescence was performed using the microplate reader CLARIOstar®. This measure represented the level of mitochondrial Ca2+ according to the peptide activity. Compounds were tested in triplicates per microplates and in three or five independent experiments for each peptide. For dose effect curves, compounds were tested in triplicates per microplates and in three independent experiments. Results are expressed as the ratio between the second and first measures and normalized to the conditions without compounds containing only PBS with 0.1% DMSO and 5% EtOH. Results are expressed as the means±SD in histogram plots and dose response curves using GraphPad Prism software (version 8.0.1).
The biological screening of the peptide is based on the ability of methyl jasmonate (MJ) to binds and detaches HK-1 from mitochondrial VDAC in a time and dose dependent manner.^16,20 For this purpose, we developed an in-cellulo screening assay in which HEK-293 cells, expressing VDAC and HK,25 were transfected with GCaMP2, a cytoplasmic Ca2+-sensing probe, or with mitoGCaMP2, the same probe addressed to mitochondrial matrix. […] MJ that removes HK from VDAC was used to induce a Ca2+ release outside mitochondria measured through a drop in mitoGCaMP2 fluorescence and an increase in GCaMP2 fluorescence in cells.

sciatic nerve explants = test: sciatic nerve explant culture and CARS imaging (demyelination); format: cell-based, mouse; details: 3 μM
Excerpt: FIG. 11: Effects of NHKI-derived peptides 3c, 5x, 7d and 7g on sciatic nerve explants cultured in medium supplemented with serum. (A) Representative CARS images showing myelin (green) of an intact sciatic nerve collected and immediately fixed in 4% PFA and a sciatic nerve explant cultured in medium supplemented with FBS referred as negative control. (B) Representative CARS images showing myelin (green) of sciatic nerve explants cultured in medium supplemented with FBS containing NHKI-derived peptides at 3 μM for 24 h. All nerves are represented in longitudinal sections. Healthy myelin sheath (white arrows), Node of Ranvier (white stars) and myelin ovoids (orange arrows) are illustrated. Scale bar: 20 μm. (C) Graph showing the percentage of damaged fibers in intact nerves (white plot), negative controls (light grey plot), 3c and its analog 7d (blue plots) 5x and its analog 7g (red plots). (N=3 independent experiments). Results are expressed as means±SD. Statistical analysis using one-way ANOVA followed by Dunnett's multiple comparison tests. *p<0.05, **p<0.01. ns, non-significant.
Twelve-week-old C57BL6/J mice were euthanized using Pentobarbital (54.7 mg/ml, 100 mg/kg, Centravet, France). First, sciatic nerves were collected, washed in PBS and their epineurium was removed. Next, 5 mm long nerves were put in 24-well microplates (NUNC, Thermo Fisher Scientific, France) in 500 μl of DMEM supplemented with 1% PS and with or without 10% FBS containing the compounds at 3 μM containing 0.1% DMSO, and further incubated in a humidified chamber at 37° C. and 5% CO2. Negative controls consisted in sciatic nerve explant cultures without compounds (only DMEM supplemented with 1% PS, with or without 10% FBS and 0.1% DMSO). Intact sciatic nerves collected and immediately fixed in 4% PFA served as a control of healthy myelin sheath for CARS imaging. After 24 h in culture, sciatic nerve explants were washed three times with PBS and fixed for 1 h in 4% PFA aqueous solution (Electron Microscopy Sciences, Thermo Fisher Scientific, France) at room temperature. All CARS images were acquired with a two-photon microscope LSM 7 MP coupled to an OPO (Zeiss, France) complemented by a delay line. A ×20 water immersion objective (W Plan Apochromat DIC VIS-IR, Zeiss, France) was used for image acquisition. Each acquisition was conducted in three independent experiments. For each experiment, three ROIs per conditions were used to quantify the percentage of damaged fibers per field using Zen software (Zen 2.3 lite, Zeiss, France). Results are expressed as means±SD.
Next, we tested NHKI-derived compound activity on sciatic nerve explant cultures in which Schwann cells demyelinate through a mechanism involving mitochondrial Ca2+ release through VDAC1.44,45,9 Intact myelin was imaged and quantified in sciatic nerve explants using Coherent Anti-Stokes Raman Scattering (CARS) nonlinear microscopy. […] Demyelination was quantified by measuring the percentage of damaged fibers, i.e. displaying ovoid formation, over the total number of fibers imaged.

[1] = target: Elastase (from porcine pancreas, EC 3.4.21.36) (Sus scrofa, UniProt P00772); details: Tris·HCl buffer pH 8, 37° C., peptides without Tat
Description: A stock solution of Elastase at 1 mg/mL was prepared in Tris·HCl buffer (50 mM, pH 8, containing 0.5 mM CaCl2,). The stock solution was diluted at 0.94 mg/mL with 658 μL of stock solution in 42 μL of Tris·HCl buffer. All peptides were dissolved in DMSO to prepare a 6.66 mmol/L stock solution. A more diluted peptide solution (0.666 mmol/L) was prepared with 70 μL of stock solution in 630 μL of Tris·HCl buffer pH 8. In a 1.5 mL Eppendorf, 890 μL of Tris·HCl pH 8 was introduced followed by 100 μL of peptide solution (0.666 mmol/L) and incubated for 15 min at 37° C. prior to degradation. Then, 10 μL of Elastase solution (0.94 mg/mL) was added. The reaction mixture was incubated up to 4h at 37° C. with shaking at 1000 rpm. Aliquots (50 μL) were taken at different time points, quenched with 450 μL of MeOH, and centrifuged for 20 min (14000 rpm) at 4° C. The supernatant was transferred into an injection vial and analyzed by LC-MS with an eluting program of 0.1% formic acid in water and 0.1% formic acid in acetonitrile (see analytical data section). The relative concentrations of the remaining peptides and the cleavage products were calculated by integration of the corresponding peak in the HPLC chromatogram/MS trace. A control peptide solution was prepared without the enzyme. […] All proteolytic degradation experiments were carried out in triplicate.

[2] = in-vitro metabolic stability in rat serum; format: in vitro ADME; details: 25% (v/v) rat serum
Description: FIG. 10: Study of the stability of NHKI derived sequence (3c′, 7a′, 7d′, 7f′-g′) towards rat serum (N=3 independent experiments). All peptides were tested at a concentration of 66.6 μmol/L in presence of 25% (v/v) of rat serum and water after incubation at 37° C. for 24 h. Errors bars show the standard deviation.
For each peptide, a stock solution in DMSO was prepared at a 6.66 mmol/L concentration. 70 μL of the solution were taken out and added to 630 μL of MilliQ water to make an aqueous peptide solution (0.666 mmol/L). The reaction consisted in 325 μL of MilliQ water and 125 μL of non-diluted rat serum pre-incubated at 37° C. for about 10-15 min before addition of 50 μL the peptide solution at 0.666 mmol/L. The mixture was incubated at 37° C. with shaking at 1000 rpm. Aliquots (25 μL) were taken at different time points (0 min, 5 min, 15 min, 30 min, 1h, 2h, 3h, 5h, 7h, 24h, 48h) and enzymatic reaction was quenched with 225p L of MeOH to precipitate all serum proteins. The Eppendorf tube was directly centrifuged (14000 rpm) for 20 min at 4° C. to remove precipitated proteins by pelleting.

Schwann cells = details: cited from earlier work
[3] = compounds at 3 μM, compared with 3c, 4d or 5x
[4] = 24 h, medium supplemented with serum

T1 sequence (P21796 2-283): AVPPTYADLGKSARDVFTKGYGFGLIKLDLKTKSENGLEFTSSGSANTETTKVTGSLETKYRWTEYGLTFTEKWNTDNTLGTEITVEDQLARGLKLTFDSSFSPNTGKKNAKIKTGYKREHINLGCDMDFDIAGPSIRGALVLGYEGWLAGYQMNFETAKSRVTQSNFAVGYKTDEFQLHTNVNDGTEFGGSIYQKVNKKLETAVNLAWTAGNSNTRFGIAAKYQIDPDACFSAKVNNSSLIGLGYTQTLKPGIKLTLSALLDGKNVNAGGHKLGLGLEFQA
Chain of Elastase (from porcine pancreas, EC 3.4.21.36) (P00772 27-266): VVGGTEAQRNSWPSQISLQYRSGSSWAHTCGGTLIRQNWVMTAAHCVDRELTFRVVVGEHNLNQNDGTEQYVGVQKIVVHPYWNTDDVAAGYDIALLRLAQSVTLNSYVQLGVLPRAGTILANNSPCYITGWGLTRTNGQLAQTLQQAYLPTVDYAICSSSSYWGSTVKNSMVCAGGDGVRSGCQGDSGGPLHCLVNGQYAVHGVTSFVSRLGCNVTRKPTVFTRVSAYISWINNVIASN

AQWWAYYFTEWK [5x, tested peptide also contains Tat]
activity / affinity for VDAC on the screening assay (mitoGCaMP2 fluorescence) (VDAC; [3]): more significant | percentage of damaged fibers (sciatic nerve explants; 24h, serum-free medium): significantly reduced the level of damaged fibers

CC(=O)N[C@@H](C)C(=O)N[C@@H](CCC(N)=O)C(=O)N[C@@H](CC(C)C)C(=O)N[C@@H](CC(C)C)C(=O)NC(C)(C)C(=O)N[C@@H](Cc1ccc(O)cc1)C(=O)N[C@@H](Cc1ccc(O)cc1)C(=O)N[C@@H](Cc1ccccc1)C(=O)N[C@H](C(=O)N[C@@H](CCC(=O)O)C(=O)N[C@@H](CC(C)C)C(=O)N[C@@H](CCCCN)C(N)=O)[C@@H](C)O [7a′] (Ac-AQLL[Aib]YYFTELK-NH2; N-terminus and C-terminus assumed)
stability towards elastase [1]: improve their stability towards elastase | remaining at 24 h, 66.6 µmol/L ([2]; 37° C., after 24 h, read-out: remaining compound in rat serum): ~65%

CCCC[C@H](NC(=O)[C@H](CCC(N)=O)NC(=O)[C@@H]1CCCN1C(=O)[C@@H]1CCCN1C(=O)[C@H](CCCNC(=N)N)NC(=O)[C@H](CCCNC(=N)N)NC(=O)[C@H](CCCNC(=N)N)NC(=O)[C@H](CCC(N)=O)NC(=O)[C@H](CCCNC(=N)N)NC(=O)[C@H](CCCNC(=N)N)NC(=O)[C@H](CCCCN)NC(=O)[C@H](CCCCN)NC(=O)[C@H](CCCNC(=N)N)NC(=O)CNC(C)=O)C(=O)N[C@H](C(=O)N[C@@H](C)C(=O)N[C@@H](C)C(=O)N[C@@H](CCC(N)=O)C(=O)N[C@@H](CC(C)C)C(=O)N[C@@H](CC(C)C)C(=O)N[C@@H](C)C(=O)N[C@@H](Cc1ccc(O)cc1)C(=O)N[C@@H](Cc1ccc(O)cc1)C(=O)N[C@@H](Cc1ccccc1)C(=O)N[C@H](C(=O)N[C@@H](CCC(=O)O)C(=O)N[C@@H](CC(C)C)C(=O)N[C@@H](CCCCN)C(N)=O)[C@@H](C)O)[C@@H](C)CC [2a]
IC50 (VDAC): 13.9 ± 3.1 µM

CC(=O)N[C@@H](C)C(=O)NC(C)(C)C(=O)N[C@@H](C)C(=O)NC(C)(C)C(=O)N[C@@H](C)C(=O)N[C@@H](CCC(N)=O)C(=O)N[C@@H](CC(C)C)C(=O)N[C@@H](CC(C)C)C(=O)NC(C)(C)C(=O)N[C@@H](Cc1ccc(O)cc1)C(=O)N[C@@H](Cc1ccc(O)cc1)C(=O)N[C@@H](Cc1ccccc1)C(=O)N[C@H](C(=O)N[C@@H](CCC(=O)O)C(=O)N[C@@H](CC(C)C)C(=O)N[C@@H](CCCCN)C(N)=O)[C@@H](C)O [7d′] (Ac-A[Aib]A[Aib]AQLL[Aib]YYFTELK-NH2; N-terminus and C-terminus assumed)
stability towards elastase [1]: improve their stability towards elastase

CC(C)CCC[C@@H](C)[C@H]1CC[C@H]2[C@@H]3CCC4=CC(=NO)CC[C@]4(C)[C@H]3CC[C@]12C [olesoxime]
demyelination (Schwann cells): block demyelination | mitochondrial calcium release (Schwann cells): prevent mitochondrial calcium release

[Nle]IAAQWWAYYL [6q]
activity / affinity for VDAC on the screening assay (mitoGCaMP2 fluorescence) (VDAC; [3]): more significant

C[C@H](NC(=O)C(C)(C)n1cc(-c2cccc(C(F)(F)F)c2)nn1)C(=O)N[C@@H](CCC(N)=O)C(=O)N[C@@H](Cc1c[nH]c2ccccc12)C(=O)N[C@@H](Cc1c[nH]c2ccccc12)C(=O)NC(C)(C)C(=O)N[C@@H](Cc1ccc(O)cc1)C(=O)N[C@@H](Cc1ccc(O)cc1)C(=O)N[C@@H](Cc1ccccc1)C(=O)N[C@H](C(=O)N[C@@H](CCC(=O)O)C(=O)N[C@@H](Cc1c[nH]c2ccccc12)C(=O)N[C@@H](CCCCN)C(=O)NCC(=O)N[C@@H](CCCNC(=N)N)C(=O)N[C@@H](CCCCN)C(=O)N[C@@H](CCCCN)C(=O)N[C@@H](CCCNC(=N)N)C(=O)N[C@@H](CCCNC(=N)N)C(=O)N[C@@H](CCC(N)=O)C(=O)N[C@@H](CCCNC(=N)N)C(=O)N[C@@H](CCCNC(=N)N)C(=O)N[C@@H](CCCNC(=N)N)C(=O)N1CCC[C@H]1C(=O)N1CCC[C@H]1C(=O)N[C@@H](CCC(N)=O)C(N)=O)[C@@H](C)O [7g] (X1-AQWW[Aib]YYFTEWKGRKKRRQRRRPPQ-NH2; N-terminus assumed)
activity / affinity for VDAC on the screening assay (mitoGCaMP2 fluorescence) (VDAC; [3]): significant higher activity | activity / affinity for VDAC on the screening assay (mitoGCaMP2 fluorescence) (VDAC; compounds at 10 μM): significantly more active than compounds 3c and 5x | nerve fibers damage (sciatic nerve explants; [4]): significantly decreased nerve fibers damage | preservation of the myelin sheath (sciatic nerve explants; [4]): significantly preserve the myelin sheath at a similar level to an intact nerve | myelin sheath pattern (sciatic nerve explants; 24h, serum-free medium): same myelin sheath pattern as an intact nerve | percentage of damaged fibers (sciatic nerve explants; 24h, serum-free medium): significantly reduced the level of damaged fibers

AQWLAYYYTELK [5m, tested peptide also contains Tat]
activity / affinity for VDAC on the screening assay (mitoGCaMP2 fluorescence) (VDAC; [3]): equally accommodated

[Nle]IAAQLWAYYY [6o]
activity / affinity for VDAC on the screening assay (mitoGCaMP2 fluorescence) (VDAC; [3]): equally accommodated

AQWLAYYLTELK [5l, tested peptide also contains Tat]
activity / affinity for VDAC on the screening assay (mitoGCaMP2 fluorescence) (VDAC; [3]): beneficial effect

C[C@H](NC(=O)[C@H](Cc1c[nH]c2ccccc12)NC(=O)[C@H](Cc1c[nH]c2ccccc12)NC(=O)[C@H](CCC(N)=O)NC(=O)[C@H](C)NC(=O)C(C)(C)n1cc(-c2cccc(C(F)(F)F)c2)nn1)C(=O)N[C@@H](Cc1ccc(O)cc1)C(=O)N[C@@H](Cc1ccc(O)cc1)C(=O)N[C@@H](Cc1ccccc1)C(=O)N[C@H](C(=O)N[C@@H](CCC(=O)O)C(=O)N[C@@H](Cc1c[nH]c2ccccc12)C(=O)N[C@@H](CCCCN)C(=O)NCC(=O)N[C@@H](CCCNC(=N)N)C(=O)N[C@@H](CCCCN)C(=O)N[C@@H](CCCCN)C(=O)N[C@@H](CCCNC(=N)N)C(=O)N[C@@H](CCCNC(=N)N)C(=O)N[C@@H](CCC(N)=O)C(=O)N[C@@H](CCCNC(=N)N)C(=O)N[C@@H](CCCNC(=N)N)C(=O)N[C@@H](CCCNC(=N)N)C(=O)N1CCC[C@H]1C(=O)N1CCC[C@H]1C(=O)N[C@@H](CCC(N)=O)C(N)=O)[C@@H](C)O [7f] (X1-AQWWAYYFTEWKGRKKRRQRRRPPQ-NH2)
IC50 (VDAC): 2.6 ± 0.6 µM | stability towards elastase [1]: most stable compound

[Nle]IAAQWLAYYY [6m]
activity / affinity for VDAC on the screening assay (mitoGCaMP2 fluorescence) (VDAC; [3]): equally accommodated

AQLWAYYYTEWK [5t, tested peptide also contains Tat]
activity / affinity for VDAC on the screening assay (mitoGCaMP2 fluorescence) (VDAC; [3]): beneficial effect

Ac-AQLLAYYFTELKGRKKRRQRRRPPQ-NH2 [3c]
percentage of damaged fibers (sciatic nerve explants; 24h, serum-free medium): same percentage of damaged fibers as the negative control | remaining at 5 min, 66.6 µmol/L ([2]; 25% rat serum, after 5 min, preliminary experiment, read-out: remaining peptide in rat serum): 10%
